Results published in patent US20230146455A1, “TREATMENT OF INFLAMMATORY DISEASES WITH PEPTIDES AND PHARMACEUTICAL COMPOSITIONS” (Yuyu Pharma, Inc., priority 2020, published 2023).
“And” between values parts separate entries of the source, which are not always exact repeats. Equal entries are not always repeated. Where a SMILES comes first, the peptide text is derived from it. [ ]: non-standard residue; d: D form. Hyp = O=C(O)[C@@H]1C[C@@H](O)CN1

Tested on: IL-2
Experiment: Example 8 main study Luminex, LPS hPBMCs: IL-2
Assay type: cell-based, human
Description: Human PBMCs were pretreated with YY-101, YDE-011, YDE-043 or reference compound; Xiidra® at various concentration (ranging from […] to 500 nM) for 2 h before stimulation. An equal volume of 0.5% DMSO was used as a vehicle control. Then, the cells were treated with LPS at 5 ug/ml, which was selected based on the pilot study. The supernatants from treated cells were harvested at 24 h and placed in a 96 well for Luminex cytokine & chemokine profiling using a Luminex 200 multiplex assay (Luminex; R&D system, USA).
The main study arm with triplicate wells per group in a 24-well plate: • 1. Blank • 2. PBMC: 0.5% DMSO • 3. PBMC+LPS (5 ug/ml) • 4. PBMC+YY-101 500 nM • 5. PBMC+YY-101 50 nM • 6. PBMC+YY-101 5 nM • 7. PBMC+YY-101 0.5 nM • 8. PBMC+LPS (5 ug/ml)+Xiidra® 500 nM • 9. PBMC+LPS (5 ug/ml)+Xiidra® 50 nM • 10. PBMC+LPS (5 ug/ml)+Xiidra® 5 nM • 11. PBMC+LPS (5 ug/ml)+Xiidra® 0.5 nM • 12. PBMC+LPS (5 ug/ml)+Xiidra® 0.05 nM • 13. PBMC+LPS (5 ug/ml)+Xiidra® 0.005 nM • 14. PBMC+LPS (5 ug/ml)+YY-101 500 nM • 15. PBMC+LPS (5 ug/ml)+YY-101 50 nM • 16. PBMC+LPS (5 ug/ml)+YY-101 5 nM • 17. PBMC+LPS (5 ug/ml)+YY-101 0.5 nM • 18. PBMC+LPS (5 ug/ml)+YY-101 0.05 nM • 19. PBMC+LPS (5 ug/ml)+YY-101 0.005 nM • 20. PBMC+LPS (5 ug/ml)+YDE-011 500 nM • 21. PBMC+LPS (5 ug/ml)+YDE-011 50 nM • 22. PBMC+LPS (5 ug/ml)+YDE-011 5 nM • 23. PBMC+LPS (5 ug/ml)+YDE-011 0.5 nM • 24. PBMC+LPS (5 ug/ml)+YDE-011 0.05 nM • 25. PBMC+LPS (5 ug/ml)+YDE-011 0.005 nM • 26. PBMC+LPS (5 ug/ml)+YDE-043 500 nM • 27. PBMC+LPS (5 ug/ml)+YDE-043 50 nM • 28. PBMC+LPS (5 ug/ml)+YDE-043 5 nM • 29. PBMC+LPS (5 ug/ml)+YDE-043 0.5 nM • 30. PBMC+LPS (5 ug/ml)+YDE-043 0.05 nM • 31. PBMC+LPS (5 ug/ml)+YDE-043 0.005 nM
Multiplex assay was used to measure 30 cytokines and chemokines. The 1:200 diluted cell supernatant and serial dilution of the standard were dispensed into a 96 well plate at 50 ul/well. Then, the pre-mixed cocktail of antibody-coated magnetic beads was dispensed at 50 ul/well and incubated at room temperature for 2 h in a horizontal orbital microplate shaker at 800±500 rpm. The beads were washed using a magnetic device to prevent loss. The biotin-antibody was dispensed in 50 ul of each well and incubated at room temperature for 1 h in a shaker at 800±500 rpm. After washing, streptavidin-PE was added at 50 ul/well and incubated at room temperature for 30 min in a shaker under the same conditions. Finally, after washing, wash buffer (100 ul/well) was added to the plate and incubated in a shaker for 2 min. The Luminex™ 200 setting were set according to the manufacturer's protocol. The data was calculated with a standard five-parameter logistic nonlinear regression analysis of the data (xPonent software 4.2, USA). Results were presented as concentration (ng/ml or pg/ml).

[1] = PBMC + LPS(5 ug/ml) + compound 0.005 nM, 24 h
[2] = PBMC + LPS(5 ug/ml) + compound 0.05 nM, 24 h
[3] = PBMC + LPS(5 ug/ml) + compound 0.5 nM, 24 h
[4] = PBMC + LPS(5 ug/ml) + compound 5 nM, 24 h
[5] = PBMC + LPS(5 ug/ml) + compound 50 nM, 24 h
[6] = PBMC + LPS(5 ug/ml) + compound 500 nM, 24 h
[7] = PBMC + compound 0.05 uM, no LPS

## CC(C)C[C@H](NC(=O)CNC(=O)[C@H](CC(=O)O)NC(=O)[C@H](CCC(N)=O)NC(=O)CNC(=O)[C@@H]1C[C@@H](O)CN1)C(=O)N[C@@H](C)C(=O)NCC(=O)N1CCC[C@H]1C(=O)N[C@@H](CCCCN)C(=O)O [YY-101] (H-[Hyp]GQDGLAGPK-OH; N-terminus and C-terminus assumed)
[1]
  IL-2 Concentration, individual wells: 2746.7 pg/mL and 2707.7 pg/mL and 2551.7 pg/mL
  IL-2 MFI, individual wells: 64.5 and 64.0 and 62.0
PBMC + LPS(5 ug/ml) + compound 0.005 nM, 24 h, LPS alone Mean 80.5
  IL-2 MFI, Mean: 63.5
PBMC + LPS(5 ug/ml) + compound 0.005 nM, 24 h, LPS alone Mean 3988.7
  IL-2 Concentration, Mean: 2668.7 pg/mL
[2]
  IL-2 Concentration, individual wells: 2785.6 pg/mL and 3174.7 pg/mL and 3058.1 pg/mL
  IL-2 MFI, individual wells: 65.0 and 70.0 and 68.5
PBMC + LPS(5 ug/ml) + compound 0.05 nM, 24 h, LPS alone Mean 80.5
  IL-2 MFI, Mean: 67.8
PBMC + LPS(5 ug/ml) + compound 0.05 nM, 24 h, LPS alone Mean 3988.7
  IL-2 Concentration, Mean: 3006.1 pg/mL
[3]
  IL-2 Concentration, individual wells: 2863.5 pg/mL and 2785.6 pg/mL and 2824.6 pg/mL
  IL-2 MFI, individual wells: 66.0 and 65.0 and 65.5
PBMC + LPS(5 ug/ml) + compound 0.5 nM, 24 h, LPS alone Mean 80.5
  IL-2 MFI, Mean: 65.5
PBMC + LPS(5 ug/ml) + compound 0.5 nM, 24 h, LPS alone Mean 3988.7
  IL-2 Concentration, Mean: 2824.6 pg/mL
[4]
  IL-2 Concentration, individual wells: 2473.6 pg/mL and 2629.7 pg/mL and 2941.4 pg/mL
  IL-2 MFI, individual wells: 61.0 and 63.0 and 67.0
PBMC + LPS(5 ug/ml) + compound 5 nM, 24 h, LPS alone Mean 80.5
  IL-2 MFI, Mean: 63.7
PBMC + LPS(5 ug/ml) + compound 5 nM, 24 h, LPS alone Mean 3988.7
  IL-2 Concentration, Mean: 2681.6 pg/mL
[5]
  IL-2 Concentration, individual wells: 2473.6 pg/mL and 2707.7 pg/mL and 2863.5 pg/mL
  IL-2 MFI, individual wells: 61.0 and 64.0 and 66.0
PBMC + LPS(5 ug/ml) + compound 50 nM, 24 h, LPS alone Mean 80.5
  IL-2 MFI, Mean: 63.7
PBMC + LPS(5 ug/ml) + compound 50 nM, 24 h, LPS alone Mean 3988.7
  IL-2 Concentration, Mean: 2681.6 pg/mL
[6]
  IL-2 Concentration, individual wells: 2707.7 pg/mL and 2863.5 pg/mL and 2551.7 pg/mL
  IL-2 MFI, individual wells: 64.0 and 66.0 and 62.0
PBMC + LPS(5 ug/ml) + compound 500 nM, 24 h, LPS alone Mean 80.5
  IL-2 MFI, Mean: 64.0
PBMC + LPS(5 ug/ml) + compound 500 nM, 24 h, LPS alone Mean 3988.7
  IL-2 Concentration, Mean: 2707.6 pg/mL
PBMC + compound 0.5 nM, no LPS
  IL-2 Concentration, individual wells: 173.5 pg/mL and 337.0 pg/mL
  IL-2 MFI, individual wells: 32.0 and 34.0
PBMC + compound 0.5 nM, no LPS, 0.5% DMSO Mean 30.7
  IL-2 MFI, Mean: 33.0
PBMC + compound 0.5 nM, no LPS, 0.5% DMSO Mean 61.8
  IL-2 Concentration, Mean: 255.2 pg/mL
PBMC + compound 5 nM, no LPS
  IL-2 Concentration, individual wells: 173.5 pg/mL
  IL-2 MFI, individual wells: 32.0
PBMC + compound 5 nM, no LPS, 0.5% DMSO Mean 30.7
  IL-2 MFI, Mean: 32.0
PBMC + compound 5 nM, no LPS, 0.5% DMSO Mean 61.8
  IL-2 Concentration, Mean: 173.5 pg/mL
[7]
  IL-2 Concentration, individual wells: 659.4 pg/mL and 337.0 pg/mL
  IL-2 MFI, individual wells: 38.0 and 34.0
PBMC + compound 0.05 uM, no LPS, 0.5% DMSO Mean 30.7
  IL-2 MFI, Mean: 36.0
PBMC + compound 0.05 uM, no LPS, 0.5% DMSO Mean 61.8
  IL-2 Concentration, Mean: 498.2 pg/mL
PBMC + compound 50 nM, no LPS
  IL-2 Concentration, individual wells: 48.8 pg/mL and 173.5 pg/mL
  IL-2 MFI, individual wells: 30.5 and 32.0
PBMC + compound 50 nM, no LPS, 0.5% DMSO Mean 30.7
  IL-2 MFI, Mean: 31.3
PBMC + compound 50 nM, no LPS, 0.5% DMSO Mean 61.8
  IL-2 Concentration, Mean: 111.2 pg/mL
PBMC + compound 500 nM, no LPS
  IL-2 Concentration, individual wells: 132.3 pg/mL and 255.5 pg/mL
  IL-2 MFI, individual wells: 31.5 and 33.0
PBMC + compound 500 nM, no LPS, 0.5% DMSO Mean 30.7
  IL-2 MFI, Mean: 32.3
PBMC + compound 500 nM, no LPS, 0.5% DMSO Mean 61.8
  IL-2 Concentration, Mean: 193.9 pg/mL
At as low as 5 μM, LPS 5 ug/mL 24 hrs
  LPS-induced IL-2 (in words): significantly reduced
